Values quoted from earlier work as cited in patent US20130224294A1, “DRY PROCESSING OF ATAZANAVIR” (priority 2010, published 2013).

Assays:
[1] = free base
[2] = at 24±3° C.; base formed by dissociation of the salt in the presence of water

For `COC(=O)N[C@H](C(=O)N[C@@H](Cc1ccccc1)[C@@H](O)CN(Cc1ccc(-c2ccccn2)cc1)NC(=O)[C@@H](NC(=O)OC)C(C)(C)C)C(C)(C)C` [Atazanavir], the “BCS class (high permeability/low solubility)” value is given as “BCS II”, the bioavailability [1] is given as “does not have sufficient bioavailability” and the solubility [2] is given as under 1 µg/mL.
